# Reference: ChEMBL document CHEMBL3991601, “The target landscape of clinical kinase drugs” (Science, 2017)
# The source made the active and inactive calls.
# Columns and labels:
# [1] = target: T1, Breakpoint cluster region protein (Homo sapiens, UniProt P11274)
# T1 sequence (P11274 whole entry): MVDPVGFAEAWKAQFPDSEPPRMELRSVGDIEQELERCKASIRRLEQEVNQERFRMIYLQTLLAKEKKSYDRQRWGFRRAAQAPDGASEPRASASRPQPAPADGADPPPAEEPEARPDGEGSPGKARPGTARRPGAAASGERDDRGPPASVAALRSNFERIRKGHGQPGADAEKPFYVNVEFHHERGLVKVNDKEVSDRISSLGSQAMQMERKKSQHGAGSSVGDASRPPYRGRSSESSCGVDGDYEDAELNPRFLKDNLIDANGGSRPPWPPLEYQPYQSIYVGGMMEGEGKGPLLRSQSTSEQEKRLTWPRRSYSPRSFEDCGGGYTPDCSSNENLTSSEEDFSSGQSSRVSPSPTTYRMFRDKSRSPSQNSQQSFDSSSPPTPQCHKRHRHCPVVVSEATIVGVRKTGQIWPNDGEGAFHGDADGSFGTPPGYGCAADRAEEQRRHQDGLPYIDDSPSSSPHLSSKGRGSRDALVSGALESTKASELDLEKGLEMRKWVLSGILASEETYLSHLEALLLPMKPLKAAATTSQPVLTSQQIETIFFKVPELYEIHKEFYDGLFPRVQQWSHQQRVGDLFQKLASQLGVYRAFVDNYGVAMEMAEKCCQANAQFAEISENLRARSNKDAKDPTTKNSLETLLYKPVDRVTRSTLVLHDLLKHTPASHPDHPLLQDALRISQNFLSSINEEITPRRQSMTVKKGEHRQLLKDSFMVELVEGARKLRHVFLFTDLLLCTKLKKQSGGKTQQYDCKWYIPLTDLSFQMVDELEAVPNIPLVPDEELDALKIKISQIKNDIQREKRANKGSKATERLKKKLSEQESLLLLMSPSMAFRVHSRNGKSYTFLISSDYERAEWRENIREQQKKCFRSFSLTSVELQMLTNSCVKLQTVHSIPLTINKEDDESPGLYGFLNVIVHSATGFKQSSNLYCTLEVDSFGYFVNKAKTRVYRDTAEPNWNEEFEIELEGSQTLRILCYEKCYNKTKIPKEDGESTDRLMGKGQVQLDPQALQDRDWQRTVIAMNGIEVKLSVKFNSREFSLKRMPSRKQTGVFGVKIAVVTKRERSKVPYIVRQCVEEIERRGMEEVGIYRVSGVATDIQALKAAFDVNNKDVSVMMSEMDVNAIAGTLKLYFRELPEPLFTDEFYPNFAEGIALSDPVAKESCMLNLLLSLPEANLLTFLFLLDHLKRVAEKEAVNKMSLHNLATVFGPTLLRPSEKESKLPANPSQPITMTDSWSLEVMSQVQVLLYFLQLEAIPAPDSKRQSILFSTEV
# [2] = target: Tyrosine-protein kinase FRK (Homo sapiens, UniProt P42685)
# [3] = target: T2, Interleukin-1 receptor-associated kinase 4 (Homo sapiens, UniProt Q9NWZ3)
# T2 sequence (Q9NWZ3 whole entry): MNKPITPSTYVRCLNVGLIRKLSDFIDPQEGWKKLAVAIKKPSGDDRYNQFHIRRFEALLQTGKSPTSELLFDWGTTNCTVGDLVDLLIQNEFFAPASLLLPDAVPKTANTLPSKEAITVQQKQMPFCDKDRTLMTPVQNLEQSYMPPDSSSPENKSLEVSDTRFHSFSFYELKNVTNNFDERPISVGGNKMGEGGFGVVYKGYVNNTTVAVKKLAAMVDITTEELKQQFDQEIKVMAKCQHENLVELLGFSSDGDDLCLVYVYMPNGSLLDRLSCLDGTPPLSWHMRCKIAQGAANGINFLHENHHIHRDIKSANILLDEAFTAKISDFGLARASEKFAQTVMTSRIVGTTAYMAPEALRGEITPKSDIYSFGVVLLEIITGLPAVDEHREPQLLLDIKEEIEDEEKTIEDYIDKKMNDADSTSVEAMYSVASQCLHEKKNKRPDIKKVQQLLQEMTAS
# [4] = target: Tyrosine-protein kinase Lyn (Homo sapiens, UniProt P07948)
# [5] = target: Mitogen-activated protein kinase 1 (Homo sapiens, UniProt P28482)
# [6] = target: Myosin-14 (Homo sapiens, UniProt Q7Z406)
# [7] = target: NADH dehydrogenase [ubiquinone] 1 alpha subcomplex subunit 13 (Homo sapiens, UniProt Q9P0J0)
# [8] = target: Obg-like ATPase 1 (Homo sapiens, UniProt Q9NTK5)
# [9] = target: T3, Glycogen phosphorylase, brain form (Homo sapiens, UniProt P11216)
# T3 sequence (P11216 whole entry): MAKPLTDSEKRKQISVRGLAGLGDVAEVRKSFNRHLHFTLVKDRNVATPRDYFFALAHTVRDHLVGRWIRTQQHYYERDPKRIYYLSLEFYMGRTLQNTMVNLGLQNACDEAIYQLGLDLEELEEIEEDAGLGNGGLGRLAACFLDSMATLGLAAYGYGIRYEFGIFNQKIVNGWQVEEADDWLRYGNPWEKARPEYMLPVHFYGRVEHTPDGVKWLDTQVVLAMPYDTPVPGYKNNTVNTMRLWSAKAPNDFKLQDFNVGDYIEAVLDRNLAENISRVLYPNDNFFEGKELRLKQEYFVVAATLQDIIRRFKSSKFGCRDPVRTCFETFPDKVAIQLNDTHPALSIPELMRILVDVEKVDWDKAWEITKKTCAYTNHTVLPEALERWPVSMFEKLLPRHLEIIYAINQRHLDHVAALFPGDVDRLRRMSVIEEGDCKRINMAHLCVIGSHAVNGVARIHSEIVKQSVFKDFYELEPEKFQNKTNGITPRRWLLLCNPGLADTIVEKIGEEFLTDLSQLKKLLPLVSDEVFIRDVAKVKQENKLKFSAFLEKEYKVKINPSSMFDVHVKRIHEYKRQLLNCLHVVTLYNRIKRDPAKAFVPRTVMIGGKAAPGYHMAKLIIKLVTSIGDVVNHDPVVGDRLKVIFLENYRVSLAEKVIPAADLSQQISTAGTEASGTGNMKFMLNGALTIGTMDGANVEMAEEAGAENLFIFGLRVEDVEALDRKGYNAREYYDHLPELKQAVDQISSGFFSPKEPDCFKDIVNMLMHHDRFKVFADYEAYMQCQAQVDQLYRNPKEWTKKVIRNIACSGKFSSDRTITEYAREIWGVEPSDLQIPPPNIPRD
# Further: in the data inactive means no Kd found up to 30 µM.
# Chain of NADH dehydrogenase [ubiquinone] 1 alpha subcomplex subunit 13 (Q9P0J0 whole entry, one chain of several): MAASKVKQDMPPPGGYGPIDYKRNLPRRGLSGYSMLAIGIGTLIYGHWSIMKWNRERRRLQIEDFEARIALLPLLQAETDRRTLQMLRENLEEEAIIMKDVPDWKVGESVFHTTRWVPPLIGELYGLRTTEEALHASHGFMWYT
# Chain of Myosin-14 (Q7Z406 whole entry): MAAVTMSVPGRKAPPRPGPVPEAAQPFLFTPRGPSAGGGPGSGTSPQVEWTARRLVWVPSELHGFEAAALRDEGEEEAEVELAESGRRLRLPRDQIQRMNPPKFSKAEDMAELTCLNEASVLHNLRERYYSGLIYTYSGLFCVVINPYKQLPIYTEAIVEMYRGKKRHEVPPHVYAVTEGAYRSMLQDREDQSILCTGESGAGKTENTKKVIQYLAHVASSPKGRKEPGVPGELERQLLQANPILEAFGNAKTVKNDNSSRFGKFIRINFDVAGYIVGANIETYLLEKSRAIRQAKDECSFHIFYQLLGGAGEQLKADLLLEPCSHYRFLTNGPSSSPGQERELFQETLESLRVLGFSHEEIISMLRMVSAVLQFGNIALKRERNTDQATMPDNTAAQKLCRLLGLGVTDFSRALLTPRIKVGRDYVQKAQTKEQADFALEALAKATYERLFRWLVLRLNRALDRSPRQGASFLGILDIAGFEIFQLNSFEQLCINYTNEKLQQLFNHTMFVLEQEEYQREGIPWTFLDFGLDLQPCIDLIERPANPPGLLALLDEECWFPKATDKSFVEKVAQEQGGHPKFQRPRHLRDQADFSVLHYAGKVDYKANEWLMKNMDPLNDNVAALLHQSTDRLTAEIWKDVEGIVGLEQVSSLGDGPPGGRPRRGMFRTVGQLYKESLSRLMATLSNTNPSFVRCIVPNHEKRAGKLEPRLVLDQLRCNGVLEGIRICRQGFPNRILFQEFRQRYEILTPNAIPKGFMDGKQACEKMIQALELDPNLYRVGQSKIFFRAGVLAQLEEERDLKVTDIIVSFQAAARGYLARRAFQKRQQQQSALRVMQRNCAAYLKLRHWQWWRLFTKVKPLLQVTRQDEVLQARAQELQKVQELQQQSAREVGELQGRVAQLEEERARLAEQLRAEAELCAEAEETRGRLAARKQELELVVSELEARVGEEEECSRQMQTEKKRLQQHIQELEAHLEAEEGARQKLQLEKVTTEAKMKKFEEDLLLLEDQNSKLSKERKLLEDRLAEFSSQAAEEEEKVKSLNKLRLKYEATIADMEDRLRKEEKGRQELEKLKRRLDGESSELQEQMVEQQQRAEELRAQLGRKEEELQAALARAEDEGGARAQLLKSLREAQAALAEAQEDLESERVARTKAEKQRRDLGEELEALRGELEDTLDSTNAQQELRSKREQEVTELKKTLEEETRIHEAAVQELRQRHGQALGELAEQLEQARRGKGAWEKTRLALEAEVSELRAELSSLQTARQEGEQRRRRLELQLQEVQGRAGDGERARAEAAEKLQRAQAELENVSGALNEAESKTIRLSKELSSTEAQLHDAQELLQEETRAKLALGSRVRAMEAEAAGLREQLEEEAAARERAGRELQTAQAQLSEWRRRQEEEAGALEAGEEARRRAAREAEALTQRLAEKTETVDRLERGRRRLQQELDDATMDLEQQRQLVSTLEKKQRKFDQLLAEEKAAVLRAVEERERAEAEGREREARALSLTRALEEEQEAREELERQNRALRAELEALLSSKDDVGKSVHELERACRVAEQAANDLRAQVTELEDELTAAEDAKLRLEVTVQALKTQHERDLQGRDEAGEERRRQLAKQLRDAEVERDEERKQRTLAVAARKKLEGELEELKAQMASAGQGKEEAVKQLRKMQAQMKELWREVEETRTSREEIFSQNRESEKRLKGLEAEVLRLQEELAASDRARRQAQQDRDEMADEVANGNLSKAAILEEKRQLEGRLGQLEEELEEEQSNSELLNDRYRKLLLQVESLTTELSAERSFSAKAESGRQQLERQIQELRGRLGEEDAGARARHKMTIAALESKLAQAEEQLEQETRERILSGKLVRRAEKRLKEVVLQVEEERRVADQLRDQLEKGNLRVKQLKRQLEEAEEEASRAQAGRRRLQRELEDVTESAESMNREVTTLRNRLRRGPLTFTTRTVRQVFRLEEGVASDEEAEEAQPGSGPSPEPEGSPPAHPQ
# Chain of Obg-like ATPase 1 (Q9NTK5 whole entry, looked up): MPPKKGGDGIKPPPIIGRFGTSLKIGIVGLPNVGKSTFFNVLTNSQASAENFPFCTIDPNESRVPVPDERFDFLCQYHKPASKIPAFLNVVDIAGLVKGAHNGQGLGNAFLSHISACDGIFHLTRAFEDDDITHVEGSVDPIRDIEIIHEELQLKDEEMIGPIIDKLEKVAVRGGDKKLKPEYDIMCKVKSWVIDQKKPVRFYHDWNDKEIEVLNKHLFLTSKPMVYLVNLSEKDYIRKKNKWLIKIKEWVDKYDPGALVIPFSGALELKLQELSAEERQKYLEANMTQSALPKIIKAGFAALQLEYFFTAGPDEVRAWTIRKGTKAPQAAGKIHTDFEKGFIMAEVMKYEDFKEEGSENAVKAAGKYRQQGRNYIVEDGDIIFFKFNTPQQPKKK
# Chain of Tyrosine-protein kinase FRK (P42685 whole entry): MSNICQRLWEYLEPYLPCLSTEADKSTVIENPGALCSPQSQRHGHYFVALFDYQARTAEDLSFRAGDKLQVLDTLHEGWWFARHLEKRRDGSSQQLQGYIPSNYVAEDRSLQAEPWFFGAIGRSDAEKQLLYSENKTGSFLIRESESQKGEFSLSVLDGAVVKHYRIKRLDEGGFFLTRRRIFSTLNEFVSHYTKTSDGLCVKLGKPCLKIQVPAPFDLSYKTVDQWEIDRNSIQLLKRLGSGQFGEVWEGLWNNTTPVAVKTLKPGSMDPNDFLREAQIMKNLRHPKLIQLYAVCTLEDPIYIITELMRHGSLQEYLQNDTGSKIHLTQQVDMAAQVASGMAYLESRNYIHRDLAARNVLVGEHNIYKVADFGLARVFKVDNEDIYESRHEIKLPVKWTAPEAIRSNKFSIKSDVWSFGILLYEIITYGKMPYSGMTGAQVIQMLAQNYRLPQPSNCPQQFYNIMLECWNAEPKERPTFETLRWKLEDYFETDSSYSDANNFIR
# Chain of Mitogen-activated protein kinase 1 (P28482 whole entry): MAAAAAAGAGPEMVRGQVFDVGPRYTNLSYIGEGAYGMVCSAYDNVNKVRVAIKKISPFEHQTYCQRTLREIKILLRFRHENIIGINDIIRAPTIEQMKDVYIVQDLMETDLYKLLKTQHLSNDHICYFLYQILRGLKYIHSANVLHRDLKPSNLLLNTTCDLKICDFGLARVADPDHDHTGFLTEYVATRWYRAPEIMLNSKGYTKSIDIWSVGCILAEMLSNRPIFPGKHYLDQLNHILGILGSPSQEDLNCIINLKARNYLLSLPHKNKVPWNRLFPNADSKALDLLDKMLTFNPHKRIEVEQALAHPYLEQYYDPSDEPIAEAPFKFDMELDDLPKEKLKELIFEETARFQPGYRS
# Chain of Tyrosine-protein kinase Lyn (P07948 whole entry): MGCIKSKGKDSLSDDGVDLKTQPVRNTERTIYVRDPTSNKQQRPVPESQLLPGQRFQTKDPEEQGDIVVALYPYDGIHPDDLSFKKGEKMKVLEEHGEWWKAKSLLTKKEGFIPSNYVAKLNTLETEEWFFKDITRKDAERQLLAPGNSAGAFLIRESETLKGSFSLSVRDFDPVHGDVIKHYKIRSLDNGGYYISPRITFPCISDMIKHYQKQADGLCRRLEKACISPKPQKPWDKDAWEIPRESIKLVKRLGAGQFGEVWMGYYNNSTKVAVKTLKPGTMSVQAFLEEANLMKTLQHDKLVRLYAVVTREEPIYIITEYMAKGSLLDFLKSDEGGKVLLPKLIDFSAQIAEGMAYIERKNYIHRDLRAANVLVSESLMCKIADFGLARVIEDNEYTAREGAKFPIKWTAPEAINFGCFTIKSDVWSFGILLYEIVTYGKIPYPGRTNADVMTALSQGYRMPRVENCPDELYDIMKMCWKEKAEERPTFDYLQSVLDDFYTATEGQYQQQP
SMILES,Kd [1],Kd [2],Kd [3],Kd [4],Kd [5],Kd [6],Kd [7],Kd [8],Kd [9]
Cc1cc(Nc2nc(N[C@@H](C)c3ncc(F)cn3)ncc2Cl)n[nH]1 [AZD-1480],> 30 µM (inactive),> 30 µM (inactive),> 30 µM (inactive),> 30 µM (inactive),> 30 µM (inactive),> 30 µM (inactive),> 30 µM (inactive),> 30 µM (inactive),> 30 µM (inactive)
COc1cc2ncnc3c2cc1OCCCCCN(C)Cc1ccc(Br)cc1N3 [JNJ-26483327],> 30 µM (inactive),> 30 µM (inactive),> 30 µM (inactive),> 30 µM (inactive),> 30 µM (inactive),> 30 µM (inactive),> 30 µM (inactive),> 30 µM (inactive),> 30 µM (inactive)
CCc1cc2c(cc1N1CCC(N3CCOCC3)CC1)C(C)(C)c1[nH]c3cc(C#N)ccc3c1C2=O [ALECTINIB],> 30 µM (inactive),> 30 µM (inactive),> 30 µM (inactive),> 30 µM (inactive),> 30 µM (inactive),> 30 µM (inactive),> 30 µM (inactive),> 30 µM (inactive),> 30 µM (inactive)
CNC(=O)c1cccc(-c2ccc3c(N4CCOC[C@@H]4C)nc(N4CCOC[C@@H]4C)nc3n2)c1 [VISTUSERTIB],> 30 µM (inactive),> 30 µM (inactive),> 30 µM (inactive),> 30 µM (inactive),> 30 µM (inactive),> 30 µM (inactive),> 30 µM (inactive),> 30 µM (inactive),> 30 µM (inactive)
C=CCn1c(=O)c2cnc(Nc3ccc(N4CCN(C)CC4)cc3)nc2n1-c1cccc(C(C)(C)O)n1 [ADAVOSERTIB],1.91 µM (active),> 30 µM (inactive),> 30 µM (inactive),> 30 µM (inactive),> 30 µM (inactive),> 30 µM (inactive),> 30 µM (inactive),> 30 µM (inactive),> 30 µM (inactive)
Cc1cc(-c2cc(OC(=O)c3ccccc3)ccc2Cl)cc2nnc(Nc3ccc(OCCN4CCCC4)cc3)nc12 [TG100-801],0.065 µM (active),> 30 µM (inactive),> 30 µM (inactive),> 30 µM (inactive),> 30 µM (inactive),> 30 µM (inactive),> 30 µM (inactive),> 30 µM (inactive),> 30 µM (inactive)
O=C(NOC[C@H](O)CO)c1ccc(F)c(F)c1Nc1ccc(I)cc1F [MIRDAMETINIB],> 30 µM (inactive),> 30 µM (inactive),> 30 µM (inactive),> 30 µM (inactive),> 30 µM (inactive),> 30 µM (inactive),> 30 µM (inactive),> 30 µM (inactive),> 30 µM (inactive)
Cc1cc(C(=O)Nc2cc(Oc3ccc4nc(NC(=O)C5CC5)cn4n3)ccc2C)n(C)n1 [TAK-593],0.035 µM (active),> 30 µM (inactive),> 30 µM (inactive),> 30 µM (inactive),> 30 µM (inactive),> 30 µM (inactive),> 30 µM (inactive),> 30 µM (inactive),> 30 µM (inactive)
NC[C@@](O)(c1ccc(Cl)cc1)c1ccc(-c2cn[nH]c2)cc1 [AT-13148],> 30 µM (inactive),> 30 µM (inactive),> 30 µM (inactive),> 30 µM (inactive),> 30 µM (inactive),> 30 µM (inactive),> 30 µM (inactive),> 30 µM (inactive),> 30 µM (inactive)
COc1cc(Nc2ncc(F)c(Nc3ccc4c(n3)N(COP(=O)(O)O)C(=O)C(C)(C)O4)n2)cc(OC)c1OC [FOSTAMATINIB],> 30 µM (inactive),> 30 µM (inactive),> 30 µM (inactive),> 30 µM (inactive),> 30 µM (inactive),> 30 µM (inactive),> 30 µM (inactive),> 30 µM (inactive),> 30 µM (inactive)
C[C@@H]1COC(Nc2ccc3ncnc(Nc4ccc(OCc5nccs5)c(Cl)c4)c3c2)=N1 [VARLITINIB],> 30 µM (inactive),> 30 µM (inactive),> 30 µM (inactive),> 30 µM (inactive),> 30 µM (inactive),> 30 µM (inactive),> 30 µM (inactive),> 30 µM (inactive),> 30 µM (inactive)
CNC(=O)c1ccc(Nc2ncc(C(F)(F)F)c(NCc3nccnc3N(C)S(C)(=O)=O)n2)cc1 [DEFACTINIB],> 30 µM (inactive),> 30 µM (inactive),> 30 µM (inactive),> 30 µM (inactive),> 30 µM (inactive),> 30 µM (inactive),> 30 µM (inactive),> 30 µM (inactive),> 30 µM (inactive)
C=CC(=O)Nc1cccc(Nc2nc(Nc3ccc(N4CCN(C(C)=O)CC4)cc3OC)ncc2C(F)(F)F)c1 [ROCILETINIB],> 30 µM (inactive),> 30 µM (inactive),> 30 µM (inactive),> 30 µM (inactive),> 30 µM (inactive),> 30 µM (inactive),> 30 µM (inactive),> 30 µM (inactive),> 30 µM (inactive)
Cc1ccc(C(=O)Nc2ccc(Oc3cc4cnn(C)c4cc3-c3cn[nH]c3)c(F)c2)c(=O)n1-c1ccc(F)cc1 [MERESTINIB],> 30 µM (inactive),> 30 µM (inactive),> 30 µM (inactive),> 30 µM (inactive),> 30 µM (inactive),> 30 µM (inactive),> 30 µM (inactive),> 30 µM (inactive),> 30 µM (inactive)
Cc1c(Cn2c(C)nc3c(C(=O)O)cc(N4CCOCC4)cc32)cccc1C(F)(F)F [GSK-2636771],> 30 µM (inactive),> 30 µM (inactive),> 30 µM (inactive),> 30 µM (inactive),> 30 µM (inactive),> 30 µM (inactive),> 30 µM (inactive),> 30 µM (inactive),> 30 µM (inactive)
